Read-outs that look alike come from different tables or passages of the source.
Target: T1, delta opioid receptor (Mus musculus, UniProt P32300)
T1 construct: NG108-15 cell membranes were purchased from Applied Cell Sciences (Rockville, Md.); host or cells: NG108-15 cell membranes
Assay: [35S]GTPγS binding assay in NG108-15 cell membranes (delta opioid functional assay), 200 nM screen
Assay type: biochemical
Settings: NG108-15 cell membranes; for EC50 / GTPγS δ-RelEfficacy @200 nM: averages if tested more than once; for GTPγS δ-opioid receptor Rel Efficacy: relative efficacy from dose response; for GTPγS δ-RelEfficacy @200 nM: 200 nM test compound, relative to calculated max of SNC80 dose response curve

[1] = read-out: GTPγS δ-opioid receptor EC50
[2] = GTPγS δ-opioid receptor EC50 (μM)

T1 sequence (P32300 whole entry): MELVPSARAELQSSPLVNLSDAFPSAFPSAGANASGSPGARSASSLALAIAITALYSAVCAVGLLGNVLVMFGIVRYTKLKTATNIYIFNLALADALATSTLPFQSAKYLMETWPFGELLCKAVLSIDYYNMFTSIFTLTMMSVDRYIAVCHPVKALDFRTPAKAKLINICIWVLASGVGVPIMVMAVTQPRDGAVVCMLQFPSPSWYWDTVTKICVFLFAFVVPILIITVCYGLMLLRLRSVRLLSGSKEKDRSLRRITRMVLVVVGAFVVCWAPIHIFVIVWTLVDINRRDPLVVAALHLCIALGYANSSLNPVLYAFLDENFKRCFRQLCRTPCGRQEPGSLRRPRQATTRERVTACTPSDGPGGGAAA

Compound	EC50 [1] [µM]	GTPγS δ-opioid receptor Rel Efficacy	EC50 [2] [µM]	GTPγS δ-RelEfficacy @200 nM
CNCCNc1cnc(-c2cccnc2)nc1Oc1ccc(OC)cc1 [Cpd 297]	0.424	0.820	–	–
COc1ccc(Oc2nc(-c3cccnc3)ncc2N[C@@H]2CCC[C@H](N)C2)cc1 [Cpd 322]	–	0.960	0.196	–
Cc1cc(Oc2nc(-c3cncc(C#N)c3)ncc2NC[C@@H]2CCCN2)ccc1F [Cpd 218]	0.353	0.960	–	0.642
Cc1ccc(Oc2nc(-c3cncc(C#N)c3)ncc2NC[C@@H]2CCCN2)cc1F [Cpd 183]	–	1.091	0.091	0.723
COc1ccc(Oc2nc(-c3cnc(F)c(C)c3)ncc2NC[C@@H]2CCCN2)cc1 [Cpd 262]	0.037	0.957	–	–
COc1ccc(Oc2nc(-c3cncc(OC)c3)ncc2N2CCNCC2)cc1 [Cpd 342]	–	1.020	0.0439	–
CCN(CC)C(=O)c1ccc(Oc2nc(-c3cccnc3)ncc2NC[C@@H]2CCCN2)cc1 [Cpd 175]	–	–	–	0.005
COc1ccc(Oc2nc(-c3cccnc3)ncc2N[C@@H]2CCCNC2)cc1 [Cpd 261]	–	0.979	0.241	–
COc1ccc(Oc2nc(-c3cccnc3)ncc2NC[C@@H]2CCCCN2)cc1 [Cpd 225]	0.483	0.718	–	0.260
CC(=O)Oc1cccc(Oc2nc(-c3cncc(C)c3)ncc2NC[C@@H]2CCCN2)c1 [Cpd 251]	–	1.145	0.015	0.955
COc1ccc(Oc2nc(-c3cccnc3)ncc2N2CCN(C)CC2)cc1 [Cpd 353, 4-(4-Methoxy-phenoxy)-5-(4-methyl-piperazin-1-yl)-2-pyridin-3-yl-pyrimidine]	0.27	0.651	–	–
COc1ccc(Oc2nc(-c3cncc(C#N)c3)ncc2N2CCC[C@@H]2CN)cc1 [Cpd 332]	–	–	–	0.393
COc1ccc(Oc2nc(-c3cncc(C#N)c3)ncc2NCc2cncn2C)cc1 [Cpd 286]	–	–	–	0.1
Clc1cncc(-c2ncc(NC[C@@H]3CCCN3)c(Oc3ccccc3Cl)n2)c1 [Cpd 229]	–	0.890	0.061	0.715
Cc1cc(Oc2nc(-c3cncc(F)c3)ncc2NC[C@@H]2CCCN2)ccc1F [Cpd 219]	> 1	–	–	0.475
Cc1ccc(Oc2nc(-c3cncc(Cl)c3)ncc2NC[C@@H]2CCCN2)cc1F [Cpd 186]	0.331	1.113	–	0.466
COc1ccc(Oc2nc(-c3cncc(C#N)c3)ncc2NC2CCNCC2)cc1 [Cpd 208]	–	–	–	0.398
Cc1cncc(-c2ncc(NC[C@@H]3CCCN3)c(Oc3ccc(OCF)cc3)n2)c1 [Cpd 260]	0.3	0.937	–	–
Cc1ccc(Oc2nc(-c3cncc(C#N)c3)ncc2NC[C@@H]2CCCN2)c(F)c1F [Cpd 189]	–	–	–	0.375
COc1ccc(Oc2nc(-c3cccnc3)ncc2N[C@@H]2CCNC2)cc1 [Cpd 224]	0.214	1.104	–	0.460

Compound	EC50 [1] [µM]	GTPγS δ-opioid receptor Rel Efficacy	EC50 [2] [µM]	GTPγS δ-RelEfficacy @200 nM
COc1ccc(Oc2nc(-c3cncc(C#N)c3)ncc2N2CCC(N)CC2)cc1 [Cpd 333]	0.118	1.116	–	0.664
CCc1ccc(Oc2nc(-c3cncc(Cl)c3)ncc2NC[C@@H]2CCCN2)cc1 [Cpd 180]	–	–	–	0.250
COc1ccc(Oc2nc(-c3cncc(C#N)c3)ncc2N2CC[C@H](N)C2)cc1 [Cpd 328]	–	–	–	0.377
COc1ccc(Oc2nc(-c3cncc(C)c3)ncc2NCCN)cc1 [Cpd 296]	0.429	0.938	–	–
Fc1cncc(-c2ncc(NC[C@@H]3CCCN3)c(Oc3ccc(C(F)(F)F)cc3)n2)c1 [Cpd 221]	–	–	–	0.324
CSc1cncc(-c2ncc(NC[C@@H]3CCCN3)c(Oc3cccc(OC(C)=O)c3)n2)c1 [Cpd 248]	–	1.084	0.047	0.754
COc1ccc(Oc2nc(-c3cncc(C#N)c3)ncc2NCC2CNC2)cc1 [Cpd 215]	0.128	1.002	–	0.674
CC[C@H]1CNCCN1c1cnc(-c2cncc(OC)c2)nc1Oc1ccc(OC)cc1 [Cpd 360]	–	1.015	0.013	–
Cc1cccc(Oc2nc(-c3cccnc3)ncc2NC[C@@H]2CCCN2)c1 [Cpd 203]	–	–	–	0.096
COc1ccc(Oc2nc(-c3cncc(C#N)c3)ncc2N[C@H]2CCCNC2)cc1 [Cpd 199]	–	1.140	–	0.615
CC(=O)Nc1ccc(Oc2nc(-c3cncc(F)c3)ncc2NC[C@@H]2CCCN2)cc1 [Cpd 212]	–	0.994	0.029	–
CCc1nc(C)c(CNc2cnc(-c3cncc(C#N)c3)nc2Oc2ccc(OC)cc2)[nH]1 [Cpd 287]	–	–	–	0.640
O=C(c1ccc(Oc2nc(-c3cncc(F)c3)ncc2NC[C@@H]2CCCN2)cc1)N1CCCC1 [Cpd 176]	–	–	–	0.112
CS(=O)(=O)Nc1ccc(Oc2nc(-c3cccnc3)ncc2NC[C@@H]2CCCN2)cc1 [Cpd 214]	–	–	–	0.115
COc1ccc(Oc2nc(-c3cc(C)cnc3C)ncc2NC[C@@H]2CCCN2)cc1 [Cpd 263]	–	0.869	0.027	–
COc1ccc(Oc2nc(-c3cccnc3)ncc2N[C@H]2CC[C@@H](N)CC2)cc1 [Cpd 305]	–	1.081	0.09	0.780
COc1ccc(Oc2nc(-c3cncc(F)c3)ncc2NC[C@@H]2C[C@@H](F)CN2)cc1 [Cpd 193]	–	1.090	0.032	0.801
COc1ccc(Oc2nc(-c3cncc(SC)c3)ncc2N[C@H]2CCC[C@@H](N)C2)cc1 [Cpd 316]	–	0.977	0.00338	–
FCc1ccc(Oc2nc(-c3cccnc3)ncc2NC[C@@H]2CCCN2)cc1 [Cpd 217, [4-(4-Fluoromethyl-phenoxy)-2-pyridin-3-yl-pyrimidin-5-yl]-pyrrolidin-2-(S)-ylmethyl-amine]	0.612	0.882	–	0.480
N#Cc1cncc(-c2ncc(NC[C@@H]3CCCN3)c(Oc3ccccc3Cl)n2)c1 [Cpd 230]	–	–	–	0.847

Compound	EC50 [1] [µM]	GTPγS δ-opioid receptor Rel Efficacy	EC50 [2] [µM]	GTPγS δ-RelEfficacy @200 nM
COc1ccc(Oc2nc(-c3cncc(SC)c3)ncc2N2CCNC(C)(C)C2)cc1 [Cpd 350]	–	1.079	0.083	–
CSc1cncc(-c2ncc(NC[C@@H]3CCCN3)c(Oc3ccccc3Cl)n2)c1 [Cpd 233]	–	–	–	0.549
N#Cc1cncc(-c2ncc(NC[C@@H]3CCCN3)c(Oc3ccc(CF)cc3)n2)c1 [Cpd 206]	–	–	–	0.292
O=C(Nc1ccc(Oc2nc(-c3cncc(F)c3)ncc2NC[C@@H]2CCCN2)cc1)OCc1ccccc1 [Cpd 197]	0.145	1.289	–	0.411
COc1ccc(Oc2nc(-c3cncc(C)c3)ncc2N2CCCNCC2)cc1 [Cpd 358]	0.0242	0.978	–	–
COc1cncc(-c2ncc(NC[C@@H]3CCCN3)c(Oc3ccccc3Cl)n2)c1 [Cpd 232]	0.143	1.021	–	0.679
O=C(Nc1ccc(Oc2nc(-c3cccnc3)ncc2NC[C@@H]2CCCN2)cc1)OCc1ccccc1 [Cpd 177, (4-{2-Pyridin-3-yl-5-[(pyrrolidin-2-(S)-ylmethyl)-amino]-pyrimidin-4-yloxy}-phenyl)-carbamic acid benzyl ester]	0.255	1.389	–	0.511
COc1ccc(Oc2nc(-c3cncc(OC)c3)ncc2NCc2cnc[nH]2)cc1 [Cpd 290]	–	–	–	0.398
O=C(Nc1cccc(Oc2nc(-c3cccnc3)ncc2NC[C@@H]2CCCN2)c1)OCc1ccccc1 [Cpd 188]	0.219	1.950	–	0.779
Cc1ccc(Oc2nc(-c3cccnc3)ncc2NC[C@@H]2CCCN2)cc1F [Cpd 187]	0.16	1.104	–	0.497
COc1ccc(Oc2nc(-c3cncc(SC)c3)ncc2N[C@@H]2CCCNC2)cc1 [Cpd 254]	–	0.928	0.151	–
COc1ccc(Oc2nc(-c3cccnc3)ncc2NCc2cnc[nH]2)cc1 [Cpd 288]	–	–	–	0.428
COc1cncc(-c2ncc(NC[C@@H]3CCCN3)c(Oc3cccc(O)c3)n2)c1 [Cpd 249]	–	0.940	0.011	1.000
c1cncc(-c2ncc(N3CCNCC3)c(Oc3ccc(C4CC4)cc3)n2)c1 [Cpd 320]	0.191	0.918	–	–
COc1ccc(Oc2nc(-c3cccnc3)ncc2NC2CCCC(N)C2)cc1 (centres unmarked) [Cpd 306]	–	1.127	0.031	0.910
COc1ccc(Oc2nc(-c3cncc(Cl)c3)ncc2NC[C@@H]2CCCN2)cc1C [Cpd 210]	–	1.150	0.044	0.730
COc1ccc(Oc2nc(-c3cncc(OC)c3)ncc2NC2CCCC(N)C2)cc1 (mixture of isomers) [Cpd 309]	0.035	1.162	–	–
COc1ccc(Oc2nc(-c3cccnc3)ncc2N2CC[C@@H](N)C2)cc1 [Cpd 339]	–	–	–	0.641

From patent US8513271B2, “Pyrimidine compounds as delta opioid receptor modulators” (Janssen Pharmaceutica, NV, priority 2009, dated 2013)
